Results taken from patent US20260049078A1, “DIFLUORO- AND TRIFLUORO-ACETYL HYDRAZIDES AS SELECTIVE HDAC6 INHIBITORS” (ITALFARMACO S.P.A., priority 2022, published 2026).

Legend:
HDAC6 = assay: Kinetic of prodrug disappearing when incubated with HDAC6 (LC-HRMS); format: biochemical; conditions: HDAC6 1 μM, 5 μM compound, 25° C.; for half-life at 5 µM: HDAC6 enzyme in assay buffer, read-out: T1/2 of prodrug disappearing
Protocol: The LC-HRMS analysis was carried out using a Vanquish Flex UHPLC (Thermo Fisher Scientific) and a high-resolution mass spectrometer Orbitrap QExactive Focus (Thermo Fisher Scientific), equipped with a Heated Electrospray Ionization, operated in positive mode. A Full Scan analysis was set in the m/z range 50-500 amu. A XSelect HSS T3 50×2.1 mm, 2.5 μm chromatographic column (Waters) was used. Mobile phase A consisted of 0.1% formic acid in water and mobile phase B in 0.1% formic acid in acetonitrile. The flow rate was set to 0.5 mL/min, with a gradient program from 3 to 20% B in 3 minutes.

zHDAC6-CD2 wt = zHDAC6-CD2 wt (Danio rerio (Zebrafish) (Brachydanio rerio), UniProt F8W4B7); assay: Isolation of long-lived/tight complex (spin column chromatography with LC-HRMS); format: binding; conditions: zHDAC6-CD2 wt 1 μM, compound 5 μM, 6 hours, Bio-Spin P-6
zHDAC6-CD2 wt, sequence (F8W4B7 entry or part of it del 1-439/del 799-1081 limits assumed): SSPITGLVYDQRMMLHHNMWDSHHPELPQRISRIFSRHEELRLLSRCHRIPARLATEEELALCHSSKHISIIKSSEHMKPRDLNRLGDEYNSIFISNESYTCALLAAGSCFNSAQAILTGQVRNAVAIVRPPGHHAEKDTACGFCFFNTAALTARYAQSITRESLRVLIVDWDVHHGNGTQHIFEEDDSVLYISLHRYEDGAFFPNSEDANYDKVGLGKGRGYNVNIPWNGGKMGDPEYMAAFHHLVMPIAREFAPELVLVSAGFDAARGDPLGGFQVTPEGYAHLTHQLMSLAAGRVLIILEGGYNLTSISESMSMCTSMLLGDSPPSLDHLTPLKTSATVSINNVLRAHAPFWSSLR
Protocol: Rapid chromatography on spin columns coupled to LC-HRMS was used to attempt the isolation of long-lived/tight complexes between HDAC6 and examples 1 and 1-A. zHDAC6-CD2 wt (1 μM) was incubated with 1 (5 μM) or 1-A (also 5 μM) as described before for 6 hours. An aliquot (60 μL) was loaded on a Bio-Spin P-6 Gel Column (Bio-Rad) that had been equilibrated with assay buffer in order to separate the HDAC6-inhibitors complexes from free compounds. After centrifugation to elute the initial fraction containing most of the enzyme, ten 200 μL aliquots were applied and eluted by centrifugation to collect the low molecular weight (free) compounds. Aliquots of the fractions were subjected to LC-HRMS analysis (as described above) for identification and quantitation of 1 and its derivatives.

SMILES | percentage of compound concentration (prodrug remaining) (HDAC6; time 0 min) | percentage of compound concentration (prodrug remaining) (HDAC6; time 30 min) | percentage of compound concentration (prodrug remaining) (HDAC6; time 60 min) | percentage of compound concentration (prodrug remaining) (HDAC6; time 120 min) | percentage of compound concentration (prodrug remaining) (HDAC6; time 240 min) | percentage of compound concentration (prodrug remaining) (HDAC6; time 360 min) | percentage of compound concentration (prodrug remaining) (HDAC6; time 480 min) | half-life at 5 µM (HDAC6) | co-elution with the enzyme (fraction 1) (zHDAC6-CD2 wt)
Nc1nc2ccc(-c3cn(Cc4ccc(-c5nnc(C(F)F)o5)cc4F)nn3)cc2s1 [Compound 2-A] | 100.00% | 73.1% | 53.6% | 31.1% | 11.1% | 3.9% | 1.3% | 1.29 h | 
Nc1nc2ccc(-c3cn(Cc4ccc(-c5nnc(C(F)F)o5)cc4Cl)nn3)cc2s1 [Compound 37-A] | 100.00% | 88.1% | 69.2% | 38.4% | 12.1% | 3.7% | 1.3% | 1.24 h | 
FC(F)c1nnc(-c2ccc(Cn3cc(-c4ccc(NC5=NCCN5)cc4)nn3)cc2)o1 [Compound 1-A] |  |  |  |  |  |  |  |  | behaves as a prodrug
